Assay results from patent US10251860B2, “Compounds for bone healing” (University of Pittsburgh—Of the Commonwealth System of …, priority 2015, dated 2019).
Values belong to the compound of their own block, whether it stands above or below them.

Key:
[1] = Procedure: (§1) Eppendorf vials (1.5 mL size) were charged with model compounds in excess. […] The vials were briefly vortexed and equilibrated in an end-over-end rotator at 30.0° C. for 20 hours.
as §1

Brine shrimp = Brine shrimp toxicity assay; assay type: in vivo
Procedure: General procedure for brine shrimp toxicity assays. Sample preparation. Stock solutions of 3 were prepared by dissolving 3 (50.0 mg) in 5.0 HPLC grade water (5.0 mL), (solution A) and 3 (2.50 g) in HPLC grade water (10.0 mL) (solution B). Stock solutions of DMSO were prepared by diluting DMSO (45 μL) with HPLC grade water (5.0 mL) (solution C) and DMSO (2.27 mL) with HPLC grade water (10.0 mL) (solution D).
In each case, 5 replicates were performed. Each replicate was performed in a 2 dram vial marked at the 4 and 5 mL volume points. To each vial was added artificial sea water (3 mL) followed by the appropriate volume of stock solution. For set 1 (1.0 mg/mL), solution A (0.500 mL) or solution C (0.500 mL) was added. For set 2 (5.0 mg/mL), solution B (0.100 mL) or solution D (0.100 mL) was added to each vial. For set 3 (20.0 mg/mL), solution B (0.400 mL) or solution D (0.400 mL) was added to each vial. For set 4 (50.0 mg/mL), solution B (1.00 mL) or solution D (1.00 mL) was added to each vial. Controls containing HPLC grade water (0.100 mL, 0.400 mL, and 1.00 mL) were prepared in the same manner, and five replicates of each control were prepared.
Brine shrimp eggs (San Francisco Bay Brand) were hatched in a commercial salt mixture (Instant Ocean). Constant aeration was provided using a pump and airstone, and illumination was maintained using a desk lamp. The shrimp were collected in a separate tank after 48 hours and used within 3-4 hours of collection.
Brine shrimp were added to each vial using a plastic transfer pipet. After the shrimp were transferred, artificial sea-water was added until the volume reached the 5-mL mark. One drop of a yeast suspension prepared by suspending 11 mg yeast in sea-water (20 mL) was added to each vial. The shrimp were counted at t=24 hours. Another drop of freshly prepared yeast solution (6 mg in 10 mL sea water) was added, the vials were maintained under illumination, and shrimp were counted at t=48 hours.

liver cell line (HepG2) = assay type: cell-based
Description: (§2) The cellular toxicity of sulfoxide 3 was further determined for a breast cancer cell line (MDA-MB-231) and a liver cell line (HepG2).

[2] = system: breast cancer cell line (MDA-MB-231); assay type: cell-based
Description: as §2

[3] = Water absorption of compound storage media (Karl Fischer titration); assay type: physicochemical; details: for Water content at t = 7 d: room temperature, pierced septum
Procedure: General procedure for calculation of water absorption. Oven-dried flasks capped with septa were cooled under a N2 atmosphere and charged with a volume of the appropriate solutions (DMSO, 3.0 mL; NMP, 600 μL; 25% 3/NMP, 600 μL). The water content was determined by Karl Fischer titration using about 100 μL aliquots (t=0 measurement). Each septum was pierced with a 1.5 inch 18 gauge needle and left to stand at room temperature for 7 days. The water content was measured at the end of this period (t=7 d measurement) by Karl Fischer titration. All measurements were made in duplicate. Results and Discussion.

[4] = reported value; cited from earlier work

effect of addition of sulfoxide 3 on aqueous solubility [1]: increased the aqueous solubility
SMILES: COc1cc(/C=C/C(=O)CC(=O)/C=C/c2ccc(O)c(OC)c2)ccc1O [Compound 7, curcumin]

SMILES: COC(=O)Nc1nc2ccccc2[nH]1 [Compound 10, carbendazim]
effect of addition of sulfoxide 3 on aqueous solubility [1]: increased the aqueous solubility

effect of addition of sulfoxide 3 on aqueous solubility [1]: increased the aqueous solubility
SMILES: COC1=CC(=O)C[C@@H](C)[C@]12Oc1c(Cl)c(OC)cc(OC)c1C2=O [Compound 11, griseofulvin]

GI50 (liver cell line (HepG2)): ~800 mM | GI50 [2]: ~800 mM | Water content at t = 0 ([3]; first vessel): 160 ppm | Water content at t = 7 d ([3]; first vessel): 1080 ppm | Water content at t = 0 ([3]; second vessel): 170 ppm | Water content at t = 7 d ([3]; second vessel): 1130 ppm
SMILES: C[S+](C)[O-] [DMSO, dimethyl sulfoxide, reference compound]
% Mortality after 24 h (Brine shrimp; 1 mg/mL): 0% | % Mortality after 48 h (Brine shrimp; 1 mg/mL): 0-10% | % Mortality after 24 h (Brine shrimp; 5 mg/mL): 0% | % Mortality after 48 h (Brine shrimp; 5 mg/mL): 0-6% | % Mortality after 24 h (Brine shrimp; 20 mg/mL): 0% | % Mortality after 48 h (Brine shrimp; 20 mg/mL): 0% | % Mortality after 24 h (Brine shrimp; 50 mg/mL): 0% | % Mortality after 48 h (Brine shrimp; 50 mg/mL): 15% | mortality after 24 h (Brine shrimp; same concentrations (1-50 mg/mL)): no mortality | reported log P [4]: −1.3

Water content at t = 0 ([3]; first vessel): 150 ppm | Water content at t = 7 d ([3]; first vessel): 12,090 ppm | Water content at t = 0 ([3]; second vessel): 130 ppm | Water content at t = 7 d ([3]; second vessel): 17,000 ppm
SMILES: CN1CCCC1=O [NMP, N-methyl-2-pyrrolidone]
